ChEMBL document CHEMBL1201862, “PubChem BioAssay data set” (2004)
The source made the active and inactive calls.

What was measured:
Protein RecA = molecular target: T1, Protein RecA (Mycobacterium tuberculosis, UniProt P9WHJ3); assay: Fluorescence Cell-Free Homogeneous Dose Retest to Identify Inhibitors of RecA-Intein Splicing Activity. [Related pubchem assays (depositor defined):AID2097, AID2223, AID489010, AID492950]; assay type: functional
T1 sequence (P9WHJ3 whole entry): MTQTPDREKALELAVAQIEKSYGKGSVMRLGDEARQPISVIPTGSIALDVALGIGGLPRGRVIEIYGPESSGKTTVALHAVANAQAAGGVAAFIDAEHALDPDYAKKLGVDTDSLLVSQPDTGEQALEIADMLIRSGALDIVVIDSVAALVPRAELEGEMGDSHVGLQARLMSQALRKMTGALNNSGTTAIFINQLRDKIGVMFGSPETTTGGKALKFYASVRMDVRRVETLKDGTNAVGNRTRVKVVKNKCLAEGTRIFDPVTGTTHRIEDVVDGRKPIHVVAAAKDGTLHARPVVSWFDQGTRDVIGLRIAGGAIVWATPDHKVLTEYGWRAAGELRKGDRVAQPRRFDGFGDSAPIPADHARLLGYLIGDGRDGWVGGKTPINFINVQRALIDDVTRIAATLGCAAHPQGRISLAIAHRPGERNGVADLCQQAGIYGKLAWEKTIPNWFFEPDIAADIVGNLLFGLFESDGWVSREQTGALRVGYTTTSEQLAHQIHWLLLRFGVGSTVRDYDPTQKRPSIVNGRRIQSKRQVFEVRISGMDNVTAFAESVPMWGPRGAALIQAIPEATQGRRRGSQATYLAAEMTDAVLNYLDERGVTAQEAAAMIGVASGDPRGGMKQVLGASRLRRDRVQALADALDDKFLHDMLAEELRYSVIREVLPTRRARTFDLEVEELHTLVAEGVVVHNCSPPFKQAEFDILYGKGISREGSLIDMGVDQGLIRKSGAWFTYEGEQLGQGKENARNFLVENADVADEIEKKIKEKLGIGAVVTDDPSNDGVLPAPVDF

[1] = molecular target: T2, Replicative DNA helicase DnaB (Mycobacterium tuberculosis, UniProt P9WMR3); assay: DnaB intein splicing inhibitors, dose response, biochemical, cell-free fluorescence (AID 449749); assay type: functional
T2 sequence (P9WMR3 whole entry): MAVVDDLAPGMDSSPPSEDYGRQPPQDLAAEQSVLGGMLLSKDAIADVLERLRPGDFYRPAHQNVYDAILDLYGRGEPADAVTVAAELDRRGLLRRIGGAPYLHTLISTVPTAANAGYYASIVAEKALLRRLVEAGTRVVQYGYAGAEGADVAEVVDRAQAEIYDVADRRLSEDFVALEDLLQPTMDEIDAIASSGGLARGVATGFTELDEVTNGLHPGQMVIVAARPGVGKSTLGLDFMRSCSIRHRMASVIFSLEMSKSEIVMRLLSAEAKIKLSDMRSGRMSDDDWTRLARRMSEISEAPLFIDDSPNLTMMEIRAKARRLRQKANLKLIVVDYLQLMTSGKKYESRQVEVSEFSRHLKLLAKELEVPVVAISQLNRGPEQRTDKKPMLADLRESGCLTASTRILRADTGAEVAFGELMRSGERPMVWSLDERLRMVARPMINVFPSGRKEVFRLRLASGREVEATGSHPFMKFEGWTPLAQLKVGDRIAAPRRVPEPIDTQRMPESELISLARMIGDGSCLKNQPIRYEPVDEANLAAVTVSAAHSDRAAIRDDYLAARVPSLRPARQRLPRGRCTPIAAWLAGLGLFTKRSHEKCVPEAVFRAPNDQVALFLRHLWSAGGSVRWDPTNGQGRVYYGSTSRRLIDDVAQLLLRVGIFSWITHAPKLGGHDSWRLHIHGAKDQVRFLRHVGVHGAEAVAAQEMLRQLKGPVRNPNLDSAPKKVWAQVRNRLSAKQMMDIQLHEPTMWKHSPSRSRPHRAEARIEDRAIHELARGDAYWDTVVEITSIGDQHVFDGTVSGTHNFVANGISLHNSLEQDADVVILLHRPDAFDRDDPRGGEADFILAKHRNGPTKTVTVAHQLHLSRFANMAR

[2] = Luminescence Cell-Based Dose Retest to Confirm Inhibitors of Cancer Stem Cells. [Related pubchem assays (depositor defined):AID2717, AID2721]; assay type: functional; settings: Homo sapiens
[3] = molecular target: T3, Heat shock factor protein 1 (Mus musculus, UniProt P38532); assay: decrease of HSF1-responsive luciferase luminescence – cell-based, NIH3T3, dose retest, confirmation (AID 2382); assay type: functional;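 note: NIH3T3 fibroblasts with HSF1-driven luciferase reporter stressed by proteasome inhibitor MG132; luminescence from HSF1-driven luciferase expression after 8 hours of MG132 stress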
T3 sequence (P38532 whole entry): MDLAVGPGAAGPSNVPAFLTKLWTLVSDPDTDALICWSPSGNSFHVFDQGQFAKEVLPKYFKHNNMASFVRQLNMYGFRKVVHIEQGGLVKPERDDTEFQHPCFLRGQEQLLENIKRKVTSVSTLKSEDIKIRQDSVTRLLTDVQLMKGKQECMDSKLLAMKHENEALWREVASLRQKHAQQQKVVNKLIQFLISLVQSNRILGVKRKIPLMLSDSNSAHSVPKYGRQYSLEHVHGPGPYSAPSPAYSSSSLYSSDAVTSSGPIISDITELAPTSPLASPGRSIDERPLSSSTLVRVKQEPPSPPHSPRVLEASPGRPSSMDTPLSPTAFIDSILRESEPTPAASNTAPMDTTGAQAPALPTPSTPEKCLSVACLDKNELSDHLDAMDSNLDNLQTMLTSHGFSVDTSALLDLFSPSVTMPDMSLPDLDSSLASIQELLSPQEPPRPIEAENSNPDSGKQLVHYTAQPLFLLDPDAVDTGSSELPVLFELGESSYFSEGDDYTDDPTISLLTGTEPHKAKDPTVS

[4] = molecular target: T4, Polyadenylate-binding protein 1 (Homo sapiens, UniProt P11940); assay: MLLE binding blockers, Cy5 peptide tracer – biochemical, fluorescence polarization, Cy5-PAM2 peptide, secondary, miRNA deadenylation inhibitor project, dose response (AID 602260); assay type: functional; settings: read-out: IC50_Mean
T4 sequence (P11940 whole entry, the tested form may be a part): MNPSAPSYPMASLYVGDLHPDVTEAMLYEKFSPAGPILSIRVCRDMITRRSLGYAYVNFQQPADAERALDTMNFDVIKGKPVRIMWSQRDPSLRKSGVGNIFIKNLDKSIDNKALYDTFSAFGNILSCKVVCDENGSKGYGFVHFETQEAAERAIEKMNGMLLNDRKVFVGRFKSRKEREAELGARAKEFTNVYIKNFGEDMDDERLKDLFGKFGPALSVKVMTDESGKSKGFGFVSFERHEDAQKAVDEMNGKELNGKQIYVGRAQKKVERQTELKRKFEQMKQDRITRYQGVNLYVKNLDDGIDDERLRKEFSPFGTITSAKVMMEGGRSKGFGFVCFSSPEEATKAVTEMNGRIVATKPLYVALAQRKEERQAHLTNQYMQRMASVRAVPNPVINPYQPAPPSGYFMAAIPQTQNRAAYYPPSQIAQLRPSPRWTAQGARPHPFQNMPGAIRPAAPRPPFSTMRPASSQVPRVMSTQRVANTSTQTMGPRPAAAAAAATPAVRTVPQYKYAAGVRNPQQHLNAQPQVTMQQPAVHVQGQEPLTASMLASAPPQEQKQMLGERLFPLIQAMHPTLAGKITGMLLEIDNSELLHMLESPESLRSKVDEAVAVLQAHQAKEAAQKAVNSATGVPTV

[5] = molecular target: T4, Polyadenylate-binding protein 1; assay: MLLE domain peptide-binding blockers, IC50 – biochemical, fluorescence polarization, FITC-PAM2 peptide, dose response (AID 602259); assay type: functional; settings: read-out: IC50_Mean
[6] = molecular target: T5, RNA-binding protein pos-1 (Caenorhabditis elegans, UniProt G5EF15); assay: disruptors of C. elegans POS-1 RNA interaction – biochemical, fluorescence polarization, dose response (AID 1964);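 note: purified POS-1 fused to maltose binding protein made in E. coli; potency of compounds blocking POS-1 binding to fluorescent RNA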
T5 sequence (G5EF15 whole entry): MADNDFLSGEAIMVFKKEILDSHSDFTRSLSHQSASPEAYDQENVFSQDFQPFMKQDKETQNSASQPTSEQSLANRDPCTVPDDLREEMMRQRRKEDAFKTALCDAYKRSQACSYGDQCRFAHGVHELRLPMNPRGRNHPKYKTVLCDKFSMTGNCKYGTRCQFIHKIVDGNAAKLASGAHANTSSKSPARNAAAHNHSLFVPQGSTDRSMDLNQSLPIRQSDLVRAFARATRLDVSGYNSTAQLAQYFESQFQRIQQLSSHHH

[7] = molecular target: T6, Zinc finger protein mex-5 (Caenorhabditis elegans, UniProt Q9XUB2); assay: potency of MEX-5 RNA-binding blockers – biochemical, C. elegans, fluorescence polarization, dose response (AID 1960)
T6 sequence (Q9XUB2 whole entry): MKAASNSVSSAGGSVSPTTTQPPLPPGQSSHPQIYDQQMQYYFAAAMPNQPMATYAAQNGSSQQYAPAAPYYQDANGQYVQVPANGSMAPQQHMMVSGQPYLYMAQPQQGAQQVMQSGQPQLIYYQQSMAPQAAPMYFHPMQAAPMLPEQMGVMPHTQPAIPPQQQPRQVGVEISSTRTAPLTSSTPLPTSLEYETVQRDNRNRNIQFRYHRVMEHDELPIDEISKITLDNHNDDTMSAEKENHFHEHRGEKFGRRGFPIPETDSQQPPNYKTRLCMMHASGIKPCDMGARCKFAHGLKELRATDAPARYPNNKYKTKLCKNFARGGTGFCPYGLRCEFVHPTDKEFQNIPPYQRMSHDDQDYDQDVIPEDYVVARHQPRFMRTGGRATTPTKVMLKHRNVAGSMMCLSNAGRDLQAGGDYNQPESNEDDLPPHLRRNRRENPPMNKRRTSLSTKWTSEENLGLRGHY

Streptococcus = assay: GAS UMAA2166 growth inhibition – luminescence, BacTiterGlo, counter-screen for streptokinase expression inhibitor project, dose response (AID 1915); assay type: functional, organism-based;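 note: potency for reduction of bacterial viability or growth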
[8] = system: Streptococcus sp. 'group A'; assay: Streptococcus pyogenes SK(-)GAS viability under kanamycin – luminescence, BacTiterGlo, confirmation, counter-screen for streptokinase expression inhibitor project, dose response (AID 1900); assay type: functional, organism-based
[9] = viability of PTEN-deleted HCT116 cells – cell-based, HCT116 PTEN knockout, dose response (AID 1047); assay type: functional;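 note: HCT116 colon tumor cells with PTEN knocked out; cells exposed to compound for 60 hours before readout; potency for loss of cell viability measured by luminescence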
[10] = viability of HCT116 lacking mutant beta-catenin – cell-based, human colon tumor, dose response (AID 1045); assay type: functional;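 note: HCT116 colon tumor cells with beta catenin knocked out; cells exposed to compound for 60 hours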

SMILES	AC50 [2]	IC50 [4]	IC50 [5]	other results
COc1cc(C2C(C#N)=C(N)Oc3c2c(-c2ccccc2)nn3-c2ccccc2)cc(OC)c1OC (stereo not drawn)				EC50 (Protein RecA): 27.9 µM (active); AC50 [1]: 26.8 µM (active)
CN(C)C(=O)/C(C#N)=C\c1cc(Br)c(Sc2ccc(Cl)cc2)o1	4.82 µM (active)			
Cc1ccc(Nc2cc(C)c3ccc(O)cc3n2)cc1C	4.45 µM (active)			
COc1ccc(-c2c(=O)n(OC)c3ccccc3[n+]2[O-])cc1OC				EC50 (Protein RecA): > 380 µM (inactive); AC50 [1]: > 380 µM (inactive)
O=[N+]([O-])c1ccc(COc2ccc(-c3[nH]ncc3-c3ccccc3)c(O)c2)cc1	4.73 µM (active)			
N#CC1=C(N)Oc2[nH]nc(-c3cccs3)c2C1c1cccs1 (stereo not drawn)				EC50 (Protein RecA): 2.02 µM (active); AC50 [1]: 2.63 µM (active)
CC1=NN(c2ccccc2)C(=O)/C1=C\c1c[nH]nc1-c1ccccc1				EC50 (Protein RecA): 2.54 µM (active); AC50 [1]: 4.1 µM (active)
COCc1n[nH]c2c1C1(CCSCC1)C(C#N)=C(N)O2				EC50 (Protein RecA): 2.26 µM (active); AC50 [1]: 18.5 µM (active); EC50 [3]: > 195 µM (not active)
Cc1cccc(-n2ncc3c(N4CCCc5ccccc54)ncnc32)c1	7.31 µM (active)			
CCCCC1OC23CCCCC2C(C#N)(C(=N)O3)C1(C#N)C#N (stereo not drawn)		> 66 µM (inactive)	> 66 µM (inactive)	
CC1(C)CC2=C(CO1)C(S)=NC(c1ccccc1)N2CC1CCCO1 (stereo not drawn)		> 66 µM (inactive)	> 66 µM (inactive)	
COc1cc(NC(S)=Nc2ccc(N(C)C(C)=O)cc2)cc(OC)c1		> 66 µM (inactive)	> 66 µM (inactive)	
CC(=O)Nc1ccc(S(=O)(=O)NCC(=O)N2CCN(S(=O)(=O)c3cccs3)CC2)cc1		> 66 µM (inactive)	> 66 µM (inactive)	
Cc1[nH]n(-c2ccc([N+](=O)[O-])cc2)c(=O)c1/C=N/CCN1CCN(C(=O)C(C)C)CC1	4.61 µM (active)			EC50 [3]: > 195 µM (not active)
Cc1[nH]nc2c1C1(CCC(c3ccccc3)CC1)C(C#N)=C(N)O2 (stereo not drawn)				EC50 (Protein RecA): 1.51 µM (active); AC50 [1]: 5.82 µM (active)
Cc1ccc(CN2CCSc3ccc(C(=O)NCc4ccco4)cc32)cc1	12.1 µM (active)			

SMILES	AC50 [2]	IC50 [4]	IC50 [5]	other results
CCCCOc1ccc(C(=O)Nc2ccc3c(c2)OCO3)cc1	1.46 µM (active)			
COc1ccc(NC(=O)C2Cc3ccccc3CN2C(=O)c2ccccc2)cn1 (stereo not drawn)		> 66 µM (inactive)	13.1 µM (active)	EC50 [6]: 25.1 µM (active); EC50 [7]: > 300 µM (inconclusive)
CCCn1c(=C(C#N)C#N)s/c(=C2\C=Cc3ccccc3N2CC)c1=O		> 66 µM (inactive)	> 66 µM (inactive)	
C#CCOCCOCCOCCNc1nc(N2CCN(C(=O)CCCCCCCCCCNC(=O)Cn3cc(C[C@@H](C)O)nn3)CC2)nc(N2CCN(C(=O)CCCCCCCCCCNC(=O)[C@@H]([C@H](C)O)n3cc(C)nn3)CC2)n1	4.67 µM (active)			
C=C(C)COc1ccc(-c2[nH]nc(C)c2-c2ccc(Br)cc2)c(O)c1	0.692 µM (active)			EC50 (Streptococcus): 4.72 µM (active); EC50 [8]: 2.99 µM (active)
S=C(c1ccc(Cl)cc1)N1CCOCC1 [(4-CHLOROPHENYL)(MORPHOLINO)METHANETHIONE]		> 66 µM (inactive)	> 66 µM (inactive)	
COc1ccc(OCCCC(=O)OCC(=O)Nc2ncc(Cl)cc2Cl)cc1		> 66 µM (inactive)	30.3 µM (inactive)	
COc1ccc(C(=O)NC(=S)NC2CCSC2=O)cc1 (stereo not drawn)		> 66 µM (inactive)	> 66 µM (inactive)	
COCCOC(=O)C1=C(C)N=C2SCCC(=O)N2C1c1ccc(OC(=O)c2ccco2)cc1 (stereo not drawn)				EC50 (Protein RecA): 14 µM (active); AC50 [1]: 19.8 µM (active)
Cn1c(=O)c2c(O)cc(N)nc2n(C)c1=O		> 66 µM (inactive)	56.2 µM (inactive)	
O=C(Nc1ccc(Cl)cc1)C1c2cccc[n+]2CC(=O)N1Cc1ccc2c(c1)OCO2 (stereo not drawn)				EC50 (Protein RecA): 13.3 µM (active); AC50 [1]: > 380 µM (inactive)
Cn1c(=O)c(C(=O)NNC(=O)c2ccc(Br)cc2)c(O)c2ccccc21	3.03 µM (active)			
CC(=O)Oc1ccc(C2=NN(c3ccccc3)C(c3ccccc3)C2)cc1 (stereo not drawn)	2.63 µM (active)			
Cc1nc(NS(=O)(=O)c2ccccc2)sc1NC(=O)OC(C)C		> 66 µM (inactive)	> 66 µM (inactive)	
COc1ccc(C2c3c(ncn(Cc4ccco4)c3=N)Oc3ccc4ccccc4c32)cc1 (stereo not drawn)	4.48 µM (active)			EC50 [9]: 9.97 µM (active); EC50 [10]: 8.89 µM (active)
